Results as given in patent US12030835B2, “Substituted amide compounds useful as farnesoid X receptor modulators” (BRISTOL-MYERS SQUIBB COMPANY, priority 2019, dated 2024).

Biological target: T1, human FXR (Homo sapiens, UniProt Q96RI1)
T1 construct: expressed in transfected cells
T1 sequence (Q96RI1 262-486 limits assumed): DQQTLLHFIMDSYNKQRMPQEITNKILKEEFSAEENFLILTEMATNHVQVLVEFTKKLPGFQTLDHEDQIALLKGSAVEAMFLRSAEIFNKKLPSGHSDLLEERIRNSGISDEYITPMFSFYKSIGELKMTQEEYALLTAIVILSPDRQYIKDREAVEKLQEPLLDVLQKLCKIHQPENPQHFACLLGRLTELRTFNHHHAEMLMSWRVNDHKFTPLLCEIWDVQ
Test: transient human FXR/Gal4-luciferase reporter assay
Assay type: cell-based
Settings: Gal4-hFXR (ligand binding domain) fusion transiently transfected in HEK293 Gal4-luciferase reporter cells; overnight incubation; response as percentage of 8 μM GW-4064 control
Experimental: A Gal4-hFXR fusion construct reporter system was used as the primary assay to characterize compound activity. A construct including 5 copies of the Gal4 promoter response element upstream of a firefly luciferase reporter cDNA was stably expressed in HEK293 cells. This reporter cell line was maintained in Dulbecco's Modified Eagle's medium (DMEM; Gibco) supplemented with 1% penicillin-streptomycin (P/S) solution, 500 μg/ml Zeocin and 10% charcoal/dextran-treated fetal bovine serum (cs-FBS) at 37° C. in a humidified 5% CO2 atmosphere. Another plasmid was constructed in which the human cytomegalovirus promoter in the pcDNA3.1 vector directs the expression of the cDNA encoding a fusion protein comprised of the DNA binding domain from the Gal4 transcription factor fused to the ligand binding domain from human FXR.
The day prior to transfection, the reporter cells in culture are detached from the plate with trypsin and plated into a T75 flask at a sufficient density to achieve approximately 90% confluence the next morning. The transfection reagents are prepared by separately diluting 25 μg of the pcDNA3.1-Gal4-FXR plasmid into 1.87 mL of Opti-MEM (Thermo-Fisher), and 40 μL of Lipofectamine 2000 (Thermo-Fisher) into 1.87 mL of Opti-MEM, and then adding the diluted DNA solution into the diluted Lipofectamine 2000 solution and incubating at room temperature for 15-20 minutes. The mixture is further diluted with 10 ml of a solution comprised of DMEM, 10% cs-FBS, and 1% P/S immediately prior to transferring to the cells. The maintenance culture media is aspirated from the cells and the final transfection mixture is added before the cells are incubated overnight at 37° C. in a humidified 5% CO2 atmosphere. This protocol can be scaled up, and the transiently transfected cells can be cryopreserved in an assay-ready format.
For compound testing, 100 nL of the compounds (serial dilutions in DMSO) are dispensed with an Echo acoustic dispenser (Labcyte) into the wells of a Corning/Costar clear bottom 384-well white plate. The transfected cells are harvested, counted, and diluted such that 10-25,000 cells in 25 μL are plated into each well of the 384-well compound assay plate. The compound-treated cells are incubated overnight at 37° C. in a humidified 5% CO2 atmosphere. The next morning 25 μL of Steady-Glo (Promega) are added to each well of the plate, the mixture is incubated for 15 min. with shaking, and luminescence is measured on an Envision (Perkin Elmer) plate reader.

| EC50 [nM] | SMILES |
| --- | --- |
| 30 | CC(C)(O)C#Cc1cccc(N(CC23CCC(c4nnc(C(C)(C)C)o4)(CC2)CC3)C(=O)C23CC(F)(C2)C3)c1 [Example 48, N-((4-(5-(tert-Butyl)-1,3,4-oxadiazol-2-yl)bicyclo[2.2.2]octan-1-yl)methyl)-3-fluoro-N-(3-(3-hydroxy-3-methylbut-1-yn-1-yl)phenyl)bicyclo[1.1.1]pentane-1-carboxamide] |
| 39 | CC(C)(O)C#Cc1cccc(N(CC23CCC(c4noc(C(C)(F)F)n4)(CC2)CC3)C(=O)C23CC(F)(C2)C3)c1 [Example 49, N-((4-(5-(1,1-difluoroethyl)-1,2,4-oxadiazol-3-yl)bicyclo[2.2.2]octan-1-yl)methyl)-3-fluoro-N-(3-(3-hydroxy-3-methylbut-1-yn-1-yl)phenyl)bicyclo[1.1.1]pentane-1-carboxamide] |
